From patent publication US20240308985A1 (Psy Therapeutics, Inc., priority 2021, published 2024)
Where two headings read alike, the source gives them in different places.

Target: Monoacylglycerol Lipase (MAGL) (Homo sapiens (Human), UniProt Q99685)
Experiment: MAGL inhibition potency (IC50) assay with 4NPA substrate
Assay type: biochemical
Excerpt: The potency of certain compounds for inhibiting MAGL were obtained using the following assays. The monoacylglycerol lipase inhibitor screening assay kit from Cayman Chemical was used to measure the MAGL potency for the compounds in Table 6 and Table 7. Cayman's Monoacylglycerol Lipase Inhibitor Screening Assay provides a method for screening human MAGL inhibitors. MAGL hydrolyzes 4-nitrophenylacetate resulting in a yellow product, 4-nitrophenol, with an absorbance of 405-412 nm. MAGL Inhibition was measured by the following assay. Monoacylglycerol Lipase (MAGL) inhibition was measured using recombinant MAGL enzyme (aa 2-303 RBC, internal preparation) and the substrate 4-Nitrophenyl acetate (4NPA) (Sigma-Aldrich, N8130). Hydrolysis of the substrate in the presence of the enzyme was measured by absorbance at 405 nm. 10 μL of assay buffer (10 mM Tris pH 7.5, 1 mM EDTA, 0.9% DMSO) was added to a black 384-well non-binding plate with clear bottom (Greiner, 781906) for each reaction. […] DMSO control wells were included for reference. A 10.8 nM (1.8×) MAGL mix in assay buffer was prepared, with 25 μL added to each reaction well, for a final assay concentration of 6 nM. No enzyme wells received 25 μL of buffer. Plate was incubated at room temperature for 30 minutes. 35 mM solution of 4NPA in methanol was prepared daily. A 4.5×4NPA substrate solution was prepared in assay buffer and 10 μL was added to each reaction well, for a final assay concentration of 0.25 mM. Plate was spun for 1 minute at 1000 rpm before measuring absorbance using a CLARIOstar plate reader (BMG Labtech). A kinetic reading at 405 nm was done every minute for 30 minutes. Data was analyzed using the linear slope of the reaction progress curve and the average of the no-enzyme wells (background) was subtracted from the data. The background-subtracted slope data was converted to % activity using the average of wells with enzyme and DMSO vehicle. IC50s were calculated using GraphPad software (Sigmoidal dose response, variable slope equation). […] Table 8 provides potency measurements of MAGL inhibition measured using the Potency Assay of Example 22 above, with the following modifications described in Table C. [table]

[1] = Method 6: Reaction Biology MAGL enzyme, 6 nM, read-out: Potency (MAGL inhibition)
[2] = Method 2: Cayman Chemical MAGL enzyme, 10 nM, read-out: Potency (MAGL inhibition)
[3] = Method 14: Reaction Biology MAGL enzyme, 6 nM, read-out: Potency (MAGL inhibition)
[4] = Method 6: Reaction Biology MAGL enzyme, 6 nM, read-out: MAGL Potency (Detection Method)
[5] = Method 2: Cayman Chemical MAGL enzyme, 10 nM, read-out: MAGL Potency (Detection Method)
[6] = Method 14: Reaction Biology MAGL enzyme, 6 nM, read-out: MAGL Potency (Detection Method)
[7] = Method 11: Reaction Biology MAGL enzyme, 25 nM (name: Conc 20), read-out: MAGL Potency (Detection Method)
[8] = Method 12: Reaction Biology MAGL enzyme, 15 nM, read-out: MAGL Potency (Detection Method)

Sequence of Monoacylglycerol Lipase (MAGL) (Q99685 2-303): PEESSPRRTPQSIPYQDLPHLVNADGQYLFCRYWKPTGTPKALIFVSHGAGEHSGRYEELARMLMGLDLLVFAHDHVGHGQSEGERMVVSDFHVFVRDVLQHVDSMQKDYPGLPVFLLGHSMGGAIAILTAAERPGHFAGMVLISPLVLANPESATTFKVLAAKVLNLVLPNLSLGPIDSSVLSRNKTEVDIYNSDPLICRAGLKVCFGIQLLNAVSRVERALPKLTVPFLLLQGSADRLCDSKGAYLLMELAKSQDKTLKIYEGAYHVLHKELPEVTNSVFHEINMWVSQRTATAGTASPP

Cc1cnn(C2CC3(C2)CN(C(=O)c2cc(O)ccc2F)C3)c1-c1ccccc1Cl [Compound 404]
IC50 [1]: > 10000 nM

Cc1cc(C2CC3(C2)CN(C(=O)c2cc(O)ccc2C#N)C3)n(-c2ccccc2C)n1 [Compound 128, 4-hydroxy-2-({6-[3-methyl-1-(o-tolyl)-5-pyrazolyl]-2-aza-2-spiro[3.3]heptyl}carbonyl)benzonitrile]
IC50 (Methods 1, 2, read-out: MAGL Potency (Detection Method)): < 50 nM

Cc1cc(C2CC3(C2)CN(C(=O)c2ccn(C)c2)C3)n(-c2ccccc2C)n1 [Compound 182]
IC50 [2]: > 10000 nM

O=C(c1cc(O)ccc1F)N1CC2(CC(C(=O)N3CCCC3)C2)C1 [Compound 388]
IC50 [3]: > 10000 nM

Cc1ccc(F)cc1-c1cc(C)n(C2CC3(C2)CN(C(=O)c2cc(O)ccc2F)C3)n1 [Compound 446, (2-fluoro-5-hydroxyphenyl){6-[3-(5-fluoro-2-tolyl)-5-methyl-1-pyrazolyl]-2-aza-2-spiro[3.3]heptyl}methanone]
IC50 [4]: < 50 nM

Cc1cc(C2CC3(C2)CN(C(=O)c2cc(O)ccc2Cl)C3)n(-c2ccccc2C)n1 [Compound 140, (2-chloro-5-hydroxyphenyl) (6-(3-methyl-1-(o-tolyl)-1H-pyrazol-5-yl)-2-azaspiro [3.3]heptan-2-yl) methanone]
IC50 [5]: 50 to 150 nM

Cc1ccccc1-c1c(C)cnn1C1CC2(C1)CN(C(=O)c1cc(O)ccc1F)C2 [Compound 373, (2-fluoro-5-hydroxyphenyl){6-[4-methyl-5-(o-tolyl)-1-pyrazolyl]-2-aza-2-spiro[3.3]heptyl}methanone]
IC50 [6]: 150 to 500 nM

Cc1cc(F)c(C(=O)N2CC3(CC(n4ncc(C)c4-c4ccccc4C)C3)C2)cc1O [Compound 407]
IC50 [4]: 50 to 150 nM

COc1cc(F)ccc1C(=O)N1CC2(CC(n3nc(-c4cc(F)ccc4C)cc3C(F)(F)F)C2)C1 [Compound 458, (4-fluoro-2-methoxyphenyl){6-[3-(5-fluoro-2-tolyl)-5-(trifluoromethyl)-1-pyrazolyl]-2-aza-2-spiro[3.3]heptyl}methanone]
IC50 [7]: 1000 to 5100 nM

Cc1ccccc1-c1cc(C)n(C2CC3(C2)CN(C(=O)c2ccc(F)cc2OCC(F)(F)F)C3)n1 [Compound 465, [4-fluoro-2-(2,2,2-trifluoroethoxy)phenyl]{6-[5-methyl-3-(o-tolyl)-1-pyrazolyl]-2-aza-2-spiro[3.3]heptyl}methanone]
IC50 [7]: 150 to 500 nM

CCOc1cc(F)ccc1C(=O)N1CC2(CC(C(=O)N(C)c3cccnc3C)C2)C1 [Compound 198]
IC50 (Method 4: Cayman Chemical MAGL enzyme, 15 nM, read-out: Potency (MAGL inhibition)): > 10000 nM

O=C(c1cc(O)ccc1F)N1CC2(CC(n3ccc(-c4ccccc4C(F)(F)F)n3)C2)C1 [Compound 525, (2-fluoro-5-hydroxyphenyl)(6-{3-[o-(trifluoromethyl)phenyl]-1-pyrazolyl}-2-aza-2-spiro[3.3]heptyl)methanone]
IC50 [8]: < 50 nM

Cc1cc(-c2cc(F)ccc2C)n(C2CC3(C2)CN(C(=O)c2cc(O)ccc2F)C3)n1 [Compound 415, (2-fluoro-5-hydroxyphenyl){6-[5-(5-fluoro-2-tolyl)-3-methyl-1-pyrazolyl]-2-aza-2-spiro[3.3]heptyl}methanone]
IC50 [4]: 50 to 150 nM

Cc1ccccc1-c1ccn(C2CC3(C2)CN(C(=O)c2cc(O)ccc2F)C3)n1 [Compound 441]
IC50 [1]: > 10000 nM

CCOc1cc(F)ccc1C(=O)N1CC2(CC(n3nc(-c4ccccc4C)cc3C)C2)C1 [Compound 461, (2-ethoxy-4-fluorophenyl){6-[5-methyl-3-(o-tolyl)-1-pyrazolyl]-2-aza-2-spiro[3.3]heptyl}methanone]
IC50 [7]: 500 to 1000 nM

Cc1cn(C2CC3(C2)CN(C(=O)c2cc(O)ccc2F)C3)nc1-c1ccccc1F [Compound 417, (2-fluoro-5-hydroxyphenyl){6-[3-(o-fluorophenyl)-4-methyl-1-pyrazolyl]-2-aza-2-spiro[3.3]heptyl}methanone]
IC50 [4]: < 50 nM

COc1ccccc1C(=O)N1CC2(CC(c3cc(C)nn3-c3ccccc3C)C2)C1 [Compound 143, (2-methoxyphenyl)(6-(3-methyl-1-(o-tolyl)-1H-pyrazol-5-yl)-2-azaspiro[3.3]heptan-2-yl)methanone]
IC50 [5]: 1000 to 5100 nM

O=C(c1cc(O)ccc1F)N1CC2(CC(n3ncnc3-c3ccccc3Cl)C2)C1 [Compound 376, {6-[5-(o-chlorophenyl)-1H-1,2,4-triazol-1-yl]-2-aza-2-spiro[3.3]beptyl}(2-fluoro-5-hydroxyphenyl)methanone]
IC50 [6]: 50 to 150 nM

Cc1cc(C2CC3(C2)CN([C@H]2COc4ccccc42)C3)n(-c2ccccc2C)n1 [Compound 154]
IC50 [2]: > 10000 nM

O=C(c1ccc(F)cc1OC1CC1)N1CC2(CC(n3ncc(C(F)(F)F)c3-c3ccccc3F)C2)C1 [Compound 523, (2-cyclopropoxy-4-fluorophenyl) {6-[5-(o-fluorophenyl)-4-(trifluoromethyl)~1-pyrazolyl]-2-aza-2-spiro[3.3]heptyl}methanone]
IC50 [8]: 1000 to 5100 nM

O=C(c1ccc(F)cc1OC1CC1)N1CC2(CC(n3cc(C(F)(F)F)c(-c4ccccc4F)n3)C2)C1 [Compound 524, (2-cyclopropoxy-4-fluorophenyl){6-[3-(o-fluorophenyl)-4-(trifluoromethyl)-1-pyrazolyl]-2-aza-2-spiro[3.3]heptyl}methanone]
IC50 [8]: 150 to 500 nM

CCOc1cc(F)ccc1C(=O)N1CC2(CC(C(=O)N(C)c3ccccc3C)C2)C1 [Compound 187, 2-(2-Ethoxy-4-fluorobenzoyl)-N-Methyl-N-(o-tolyl)-2-azaspiro [3.3] heptane-6-carboxamide]
IC50 [5]: 150 to 500 nM
IC50 (Methods 2, 3, read-out: MAGL Potency (Detection Method)): 1000 to 5100 nM

Cc1ccc(F)cc1-c1cc(C)n(C2CC3(C2)CN(C(=O)c2ccc(F)cc2OCF)C3)n1 [Compound 437, (4-fluoro-2-fluoromethoxyphenyl){6-[3-(5-fluoro-2-tolyl)-5-methyl-1-pyrazolyl]-2-aza-2-spiro[3.3]heptyl}methanone]
IC50 [7]: 1000 to 5100 nM

Cc1cc(C2CC3(C2)CN(C(=O)c2cc4c(cc2F)CCO4)C3)n(-c2ccccc2C)n1 [Compound 368]
IC50 [3]: > 10000 nM

Cc1ccc(F)cc1-c1cc(C)n(C2CC3(C2)CN(C(=O)c2ccc(F)cc2OC2CC2)C3)n1 [Compound 450, (2-cyclopropoxy-4-fluorophenyl){6-[3-(5-fluoro-2-tolyl)-5-methyl-1-pyrazolyl]-2-aza-2-spiro[3.3]heptyl}methanone]
IC50 [4]: 150 to 500 nM

O=C(c1cc(O)ccc1F)N1CC2(CC(n3ncc(C4CC4)c3-c3ccccc3Cl)C2)C1 [Compound 411, {6-[5-(o-chlorophenyl)-4-cyclopropyl-1-pyrazolyl]-2-aza-2-spiro[3.3]heptyl}(2-fluoro-5-hydroxyphenyl)methanone]
IC50 [4]: 150 to 500 nM

Cc1ccccc1-c1c(C)cnn1C1CC2(C1)CN(C(=O)c1ccc(F)cc1OC1CC1)C2 [Compound 419, (2-cyclopropoxy-4-fluorophenyl){6-[4-methyl-5-(o-tolyl)-1-pyrazolyl]-2-aza-2-spiro[3.3]heptyl}methanone]
IC50 [4]: 1000 to 5100 nM

Cc1ccccc1-c1nn(C2CC3(C2)CN(C(=O)c2ccc(F)cc2OC2CC2)C3)cc1C [Compound 447, (2-cyclopropoxy-4-fluorophenyl){6-[4-methyl-3-(o-tolyl)-1-pyrazolyl]-2-aza-2-spiro[3.3]heptyl}methanone]
IC50 [4]: 150 to 500 nM

Cc1cc(-c2ccccc2C)n(C2CC3(C2)CN(C(=O)c2ccc(F)cc2OCC(F)(F)F)C3)n1 [Compound 464, [4-fluoro-2-(2,2,2-trifluoroethoxy)phenyl]{6-[3-methyl-5-(o-tolyl)-1-pyrazolyl]-2-aza-2-spiro[3.3]heptyl}methanone]
IC50 [7]: 500 to 1000 nM

O=C(NCC1COC1)C1CC2(C1)CN(C(=O)c1cc(O)ccc1F)C2 [Compound 395]
IC50 [3]: > 10000 nM

Cc1ccc(F)cc1-c1cc(C)n(C2CC3(C2)CN(C(=O)c2ccc(F)cc2OC(F)(F)F)C3)n1 [Compound 454, {6-[3-(5-fluoro-2-tolyl)-5-methyl-1-pyrazolyl]-2-aza-2-spiro[3.3]heptyl}(4-fluoro-2-trifluoromethoxyphenyl)methanone]
IC50 [7]: 1000 to 5100 nM

Cc1cn(C2CC3(C2)CN(C(=O)c2cc(O)ccc2C(F)(F)F)C3)nc1-c1ccccc1F [Compound 495]
IC50 (Method 12: Reaction Biology MAGL enzyme, 15 nM, read-out: Potency (MAGL inhibition)): > 10000 nM
